# Numbers after ± are expanded uncertainties.
# Test: xn = mol fraction of the nth substance listed
structure (smiles),measurement,setting,value
FC(Cl)(Cl)Cl [trichlorofluoromethane] + FC(F)Cl,mass density,"424.96 K, 293.85 kPa, Fluid (supercritical or subcritical phases), Burnett expansion method, x1 = 0.832",11.0367 ± 0.22 kg/m3
same,mass density,"424.96 K, 373.9 kPa, Fluid (supercritical or subcritical phases), Burnett expansion method, x1 = 0.832",14.1459 ± 0.28 kg/m3
same,mass density,"424.96 K, 418.92 kPa, Fluid (supercritical or subcritical phases), Burnett expansion method, x1 = 0.832",15.9304 ± 0.32 kg/m3
same,mass density,"424.96 K, 445.3 kPa, Gas, isochoric method, x1 = 0.832",131.354 ± 0.093 kg/m3
same,mass density,"424.96 K, 567.37 kPa, Fluid (supercritical or subcritical phases), Burnett expansion method, x1 = 0.832",21.9341 ± 0.44 kg/m3
same,mass density,"424.96 K, 662.1 kPa, Gas, isochoric method, x1 = 0.832",200.808 ± 0.14 kg/m3
same,mass density,"424.96 K, 663.7 kPa, Gas, isochoric method, x1 = 0.832",200.808 ± 0.14 kg/m3
same,mass density,"424.96 K, 715.19 kPa, Fluid (supercritical or subcritical phases), Burnett expansion method, x1 = 0.832",28.1109 ± 0.56 kg/m3
same,mass density,"424.96 K, 797.38 kPa, Fluid (supercritical or subcritical phases), Burnett expansion method, x1 = 0.832",31.6606 ± 0.63 kg/m3
same,mass density,"424.96 K, 967.2 kPa, Gas, isochoric method, x1 = 0.832",303.998 ± 0.094 kg/m3
same,mass density,"424.96 K, 969 kPa, Gas, isochoric method, x1 = 0.832",303.998 ± 0.094 kg/m3
same,mass density,"424.96 K, 1086 kPa, Fluid (supercritical or subcritical phases), Burnett expansion method, x1 = 0.832",44.6324 ± 0.9 kg/m3
same,mass density,"424.96 K, 1298.4 kPa, Gas, isochoric method, x1 = 0.832",426.053 ± 0.33 kg/m3
same,mass density,"424.96 K, 1299.4 kPa, Gas, isochoric method, x1 = 0.832",426.053 ± 0.33 kg/m3
same,mass density,"424.96 K, 1617.2 kPa, Gas, isochoric method, x1 = 0.832",556.221 ± 0.17 kg/m3
same,mass density,"424.96 K, 1619.2 kPa, Gas, isochoric method, x1 = 0.832",556.221 ± 0.17 kg/m3
same,mass density,"424.96 K, 3854.3 kPa, Liquid, Pycnometric method, x1 = 0.8336",1012.94 ± 3.5 kg/m3
same,mass density,"424.96 K, 4517.9 kPa, Liquid, Pycnometric method, x1 = 0.8336",1028.76 ± 3.4 kg/m3
same,mass density,"424.96 K, 7331.5 kPa, Liquid, Pycnometric method, x1 = 0.8336",1077.17 ± 2.6 kg/m3
same,mass density,"424.96 K, 20744 kPa, Liquid, Pycnometric method, x1 = 0.8336",1193.05 ± 1.9 kg/m3
same,mass density,"424.96 K, 49662 kPa, Liquid, Pycnometric method, x1 = 0.8336",1310.9 ± 1.5 kg/m3
same,mass density,"424.96 K, 65344 kPa, Liquid, Pycnometric method, x1 = 0.8336",1352.8 ± 1.5 kg/m3
same,mass density,"424.97 K, 150.03 kPa, Fluid (supercritical or subcritical phases), Burnett expansion method, x1 = 0.832",5.5536 ± 0.11 kg/m3
same,mass density,"424.97 K, 153.48 kPa, Fluid (supercritical or subcritical phases), Burnett expansion method, x1 = 0.832",5.6866 ± 0.11 kg/m3
same,mass density,"424.97 K, 215.05 kPa, Fluid (supercritical or subcritical phases), Burnett expansion method, x1 = 0.832",8.0157 ± 0.16 kg/m3
same,mass density,"424.97 K, 300.89 kPa, Fluid (supercritical or subcritical phases), Burnett expansion method, x1 = 0.832",11.3011 ± 0.23 kg/m3
same,mass density,"424.97 K, 409.41 kPa, Fluid (supercritical or subcritical phases), Burnett expansion method, x1 = 0.832",15.5588 ± 0.31 kg/m3
same,mass density,"424.97 K, 444.8 kPa, Gas, isochoric method, x1 = 0.832",131.354 ± 0.093 kg/m3
same,mass density,"424.97 K, 518.76 kPa, Fluid (supercritical or subcritical phases), Burnett expansion method, x1 = 0.832",19.9414 ± 0.4 kg/m3
same,mass density,"424.97 K, 580.12 kPa, Fluid (supercritical or subcritical phases), Burnett expansion method, x1 = 0.832",22.4579 ± 0.45 kg/m3
same,mass density,"424.97 K, 977.19 kPa, Fluid (supercritical or subcritical phases), Burnett expansion method, x1 = 0.832",39.6298 ± 0.8 kg/m3
same,mass density,"424.97 K, 1317.5 kPa, Fluid (supercritical or subcritical phases), Burnett expansion method, x1 = 0.832",55.8677 ± 1.1 kg/m3
same,mass density,"424.97 K, 3592.7 kPa, Liquid, Pycnometric method, x1 = 0.8336",1005.84 ± 3.6 kg/m3
same,mass density,"424.97 K, 4190.2 kPa, Liquid, Pycnometric method, x1 = 0.8336",1021.29 ± 3.4 kg/m3
same,mass density,"424.97 K, 4853 kPa, Liquid, Pycnometric method, x1 = 0.8336",1035.91 ± 3 kg/m3
same,mass density,"424.97 K, 5457.4 kPa, Liquid, Pycnometric method, x1 = 0.8336",1047.58 ± 3 kg/m3
same,mass density,"424.97 K, 6169.4 kPa, Liquid, Pycnometric method, x1 = 0.8336",1059.78 ± 3 kg/m3
same,mass density,"424.97 K, 14203 kPa, Liquid, Pycnometric method, x1 = 0.8336",1148.26 ± 2.2 kg/m3
same,mass density,"424.97 K, 27900 kPa, Liquid, Pycnometric method, x1 = 0.8336",1230.65 ± 1.7 kg/m3
same,mass density,"424.97 K, 35700 kPa, Liquid, Pycnometric method, x1 = 0.8336",1263.74 ± 1.6 kg/m3
same,mass density,"424.97 K, 42738 kPa, Liquid, Pycnometric method, x1 = 0.8336",1289.02 ± 1.5 kg/m3
same,mass density,"424.97 K, 56282 kPa, Liquid, Pycnometric method, x1 = 0.8336",1329.7 ± 1.5 kg/m3
same,mass density,"424.97 K, 61980 kPa, Liquid, Pycnometric method, x1 = 0.8336",1344.58 ± 1.4 kg/m3
same,mass density,"429.96 K, 2000.6 kPa, Gas, isochoric method, x1 = 0.832",715.595 ± 0.22 kg/m3
same,mass density,"429.96 K, 2000.8 kPa, Gas, isochoric method, x1 = 0.832",715.595 ± 0.66 kg/m3
same,mass density,"429.96 K, 2002.4 kPa, Gas, isochoric method, x1 = 0.832",715.595 ± 0.22 kg/m3
same,mass density,"474.95 K, 4750 kPa, Fluid (supercritical or subcritical phases), Burnett expansion method, x1 = 0.832",271.514 ± 5.5 kg/m3
same,mass density,"474.97 K, 1108 kPa, Fluid (supercritical or subcritical phases), Burnett expansion method, x1 = 0.832",39.0371 ± 0.78 kg/m3
same,mass density,"474.98 K, 322.47 kPa, Fluid (supercritical or subcritical phases), Burnett expansion method, x1 = 0.832",10.7116 ± 0.21 kg/m3
same,mass density,"474.98 K, 601.7 kPa, Fluid (supercritical or subcritical phases), Burnett expansion method, x1 = 0.832",20.4396 ± 0.41 kg/m3
same,mass density,"474.98 K, 1965.5 kPa, Fluid (supercritical or subcritical phases), Burnett expansion method, x1 = 0.832",74.5021 ± 1.5 kg/m3
same,mass density,"474.98 K, 1995.2 kPa, Fluid (supercritical or subcritical phases), Burnett expansion method, x1 = 0.832",75.9597 ± 1.5 kg/m3
same,mass density,"474.98 K, 3255.8 kPa, Fluid (supercritical or subcritical phases), Burnett expansion method, x1 = 0.832",142.18 ± 2.9 kg/m3
same,mass density,"474.98 K, 3296.6 kPa, Fluid (supercritical or subcritical phases), Burnett expansion method, x1 = 0.832",144.503 ± 2.9 kg/m3
same,mass density,"474.98 K, 4786.8 kPa, Fluid (supercritical or subcritical phases), Burnett expansion method, x1 = 0.832",274.877 ± 5.5 kg/m3
same,mass density,"474.98 K, 5920.1 kPa, Fluid (supercritical or subcritical phases), Burnett expansion method, x1 = 0.832",522.524 ± 11 kg/m3
same,mass density,"474.98 K, 13635 kPa, Fluid (supercritical or subcritical phases), Burnett expansion method, x1 = 0.832",993.788 ± 20 kg/m3
same,mass density,"474.99 K, 590.67 kPa, Fluid (supercritical or subcritical phases), Burnett expansion method, x1 = 0.832",20.1833 ± 0.4 kg/m3
same,mass density,"474.99 K, 1081.5 kPa, Fluid (supercritical or subcritical phases), Burnett expansion method, x1 = 0.832",38.4124 ± 0.77 kg/m3
same,mass density,"474.99 K, 1126.1 kPa, Fluid (supercritical or subcritical phases), Burnett expansion method, x1 = 0.832",39.9341 ± 0.8 kg/m3
same,mass density,"474.99 K, 1933.1 kPa, Fluid (supercritical or subcritical phases), Burnett expansion method, x1 = 0.832",73.0924 ± 1.5 kg/m3
same,mass density,"474.99 K, 3211.7 kPa, Fluid (supercritical or subcritical phases), Burnett expansion method, x1 = 0.832",139.089 ± 2.8 kg/m3
same,mass density,"474.99 K, 4708.1 kPa, Fluid (supercritical or subcritical phases), Burnett expansion method, x1 = 0.832",264.786 ± 5.4 kg/m3
same,mass density,"475 K, 5875.1 kPa, Fluid (supercritical or subcritical phases), Burnett expansion method, x1 = 0.832",503.942 ± 11 kg/m3
same,mass density,"475 K, 5905.8 kPa, Fluid (supercritical or subcritical phases), Burnett expansion method, x1 = 0.832",518.038 ± 11 kg/m3
same,mass density,"475 K, 12413 kPa, Fluid (supercritical or subcritical phases), Burnett expansion method, x1 = 0.832",958.868 ± 19 kg/m3
same,mass density,"475.01 K, 13484 kPa, Fluid (supercritical or subcritical phases), Burnett expansion method, x1 = 0.832",988.822 ± 20 kg/m3
